Measured values taken from the supplement of paper PMC10307832.

Key:
Assay in all cases: relative viability (nuclei count vs DMSO), 5 days (fraction); higher = more cells survive
ChaGo-K-1 = system: ChaGo-K-1
Outline: (§1)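 Relative viability divides the nuclei count in treated wells by that in vehicle wells. Lung cancer cell lines were seeded in 1536-well plates, dosed by pin tool the next day, and fixed and stained after 5 days in one step with final 0.05% Triton X-100, 1% formaldehyde and 1 ug/ml Hoechst. Dosing was a single drug or a fixed anchor-drug dose plus five library-drug doses (not always all listed) in √10 steps, and values are medians of duplicate plates imaged at 4×.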

NCI-H520 = system: NCI-H520
Outline: as §1

COR-L 105 = system: COR-L 105
Outline: as §1

NCI-H23 = system: NCI-H23
Outline: as §1

NCI-H650 = system: NCI-H650
Outline: as §1

H3255 = system: H3255
Outline: as §1

NCI-H1915 = system: NCI-H1915
Outline: as §1

NCI-H647 = system: NCI-H647
Outline: as §1

NCI-H2347 = system: NCI-H2347
Outline: as §1

NCI-H661 = system: NCI-H661
Outline: as §1

LC-2-ad = system: LC-2-ad
Outline: as §1

HCC-827 = system: HCC-827
Outline: as §1

LCLC-97TM1 = system: LCLC-97TM1
Outline: as §1

NCI-H2405 = system: NCI-H2405
Outline: as §1

HCC-78 = system: HCC-78
Outline: as §1

NCI-H2126 = system: NCI-H2126
Outline: as §1

EPLC-272H = system: EPLC-272H
Outline: as §1

PC-14 = system: PC-14
Outline: as §1

201T = system: 201T
Outline: as §1

RERF-LC-KJ = system: RERF-LC-KJ
Outline: as §1

NCI-H1666 = system: NCI-H1666
Outline: as §1

NCI-H2087 = system: NCI-H2087
Outline: as §1

With Nc1ccn([C@@H]2O[C@H](CO)[C@@H](O)[C@@H]2O)c(=O)n1 [Cytarabine] + CS(=O)(=O)N1CCN(Cc2cc3nc(-c4cccc5[nH]ncc45)nc(N4CCOCC4)c3s2)CC1 [Pictilisib] (partner 1 µM) as the compound, how does the relative viability (ChaGo-K-1; first compound 0.005 µM) read?
The relative viability was 0.583.

And the relative viability (ChaGo-K-1; first compound 0.01581 µM)?
The relative viability was 0.459.

What about the relative viability (ChaGo-K-1; first compound 0.05 µM) of the same compound?
The relative viability was 0.284.

And the relative viability (ChaGo-K-1; first compound 0.1581 µM)?
Its relative viability is 0.365.

And the relative viability (ChaGo-K-1; first compound 0.5 µM)?
The relative viability was 0.401.

And the relative viability (NCI-H520; first compound 0.005 µM)?
Its relative viability is 0.228.

And the relative viability (NCI-H520; first compound 0.01581 µM)?
Its relative viability is 0.276.

And the relative viability (NCI-H520; first compound 0.05 µM)?
Its relative viability is 0.288.

What about the relative viability (NCI-H520; first compound 0.1581 µM) of the same compound?
The relative viability was 0.27.

And the relative viability (NCI-H520; first compound 0.5 µM)?
The relative viability was 0.309.

And the relative viability (COR-L 105; first compound 0.005 µM)?
The relative viability was 0.32.

And the relative viability (COR-L 105; first compound 0.01581 µM)?
The relative viability was 0.361.

What about the relative viability (COR-L 105; first compound 0.05 µM) of the same compound?
The relative viability was 0.312.

What about the relative viability (COR-L 105; first compound 0.1581 µM) of the same compound?
The relative viability was 0.311.

What about the relative viability (COR-L 105; first compound 0.5 µM) of the same compound?
The relative viability was 0.242.

And the relative viability (NCI-H23; first compound 0.005 µM)?
The relative viability was 0.527.

What about the relative viability (NCI-H23; first compound 0.01581 µM) of the same compound?
The relative viability was 0.346.

What about the relative viability (NCI-H23; first compound 0.05 µM) of the same compound?
Its relative viability is 0.327.

What about the relative viability (NCI-H23; first compound 0.1581 µM) of the same compound?
Its relative viability is 0.156.

And the relative viability (NCI-H23; first compound 0.5 µM)?
Its relative viability is 0.138.

What about the relative viability (NCI-H650; first compound 0.005 µM) of the same compound?
The relative viability was 0.831.

What about the relative viability (NCI-H650; first compound 0.01581 µM) of the same compound?
Its relative viability is 0.688.

What about the relative viability (NCI-H650; first compound 0.05 µM) of the same compound?
The relative viability was 0.419.

And the relative viability (NCI-H650; first compound 0.1581 µM)?
Its relative viability is 0.224.

What about the relative viability (NCI-H650; first compound 0.5 µM) of the same compound?
Its relative viability is 0.214.

And the relative viability (H3255; first compound 0.005 µM)?
Its relative viability is 0.438.

And the relative viability (H3255; first compound 0.01581 µM)?
The relative viability was 0.446.

What about the relative viability (H3255; first compound 0.05 µM) of the same compound?
The relative viability was 0.403.

And the relative viability (H3255; first compound 0.1581 µM)?
Its relative viability is 0.294.

What about the relative viability (H3255; first compound 0.5 µM) of the same compound?
Its relative viability is 0.303.

What about the relative viability (NCI-H1915; first compound 0.005 µM) of the same compound?
The relative viability was 0.866.

What about the relative viability (NCI-H1915; first compound 0.01581 µM) of the same compound?
Its relative viability is 0.853.

And the relative viability (NCI-H1915; first compound 0.05 µM)?
The relative viability was 0.589.

What about the relative viability (NCI-H1915; first compound 0.1581 µM) of the same compound?
Its relative viability is 0.274.

And the relative viability (NCI-H1915; first compound 0.5 µM)?
The relative viability was 0.233.

What about the relative viability (NCI-H647; first compound 0.005 µM) of the same compound?
Its relative viability is 0.39.

And the relative viability (NCI-H647; first compound 0.01581 µM)?
Its relative viability is 0.212.

And the relative viability (NCI-H647; first compound 0.05 µM)?
The relative viability was 0.159.

And the relative viability (NCI-H647; first compound 0.1581 µM)?
The relative viability was 0.0808.

What about the relative viability (NCI-H647; first compound 0.5 µM) of the same compound?
Its relative viability is 0.0843.

What about the relative viability (NCI-H2347; first compound 0.005 µM) of the same compound?
Its relative viability is 0.536.

What about the relative viability (NCI-H2347; first compound 0.01581 µM) of the same compound?
The relative viability was 0.811.

And the relative viability (NCI-H2347; first compound 0.05 µM)?
The relative viability was 0.778.

And the relative viability (NCI-H2347; first compound 0.1581 µM)?
Its relative viability is 0.482.

What about the relative viability (NCI-H2347; first compound 0.5 µM) of the same compound?
The relative viability was 0.588.

What about the relative viability (NCI-H661; first compound 0.005 µM) of the same compound?
Its relative viability is 0.411.

What about the relative viability (NCI-H661; first compound 0.01581 µM) of the same compound?
Its relative viability is 0.323.

What about the relative viability (NCI-H661; first compound 0.05 µM) of the same compound?
The relative viability was 0.217.

What about the relative viability (NCI-H661; first compound 0.1581 µM) of the same compound?
Its relative viability is 0.284.

What about the relative viability (NCI-H661; first compound 0.5 µM) of the same compound?
The relative viability was 0.222.

And the relative viability (LC-2-ad; first compound 0.005 µM)?
The relative viability was 0.402.

And the relative viability (LC-2-ad; first compound 0.01581 µM)?
The relative viability was 0.419.

And the relative viability (LC-2-ad; first compound 0.05 µM)?
The relative viability was 0.361.

What about the relative viability (LC-2-ad; first compound 0.1581 µM) of the same compound?
The relative viability was 0.212.

And the relative viability (LC-2-ad; first compound 0.5 µM)?
The relative viability was 0.16.

And the relative viability (HCC-827; first compound 0.005 µM)?
Its relative viability is 1.05.

And the relative viability (HCC-827; first compound 0.01581 µM)?
The relative viability was 0.876.

And the relative viability (HCC-827; first compound 0.05 µM)?
Its relative viability is 0.683.

What about the relative viability (HCC-827; first compound 0.1581 µM) of the same compound?
The relative viability was 0.474.

What about the relative viability (HCC-827; first compound 0.5 µM) of the same compound?
Its relative viability is 0.408.

What about the relative viability (LCLC-97TM1; first compound 0.005 µM) of the same compound?
The relative viability was 0.207.

And the relative viability (LCLC-97TM1; first compound 0.01581 µM)?
The relative viability was 0.177.

What about the relative viability (LCLC-97TM1; first compound 0.05 µM) of the same compound?
Its relative viability is 0.0754.

What about the relative viability (LCLC-97TM1; first compound 0.1581 µM) of the same compound?
The relative viability was 0.124.

And the relative viability (LCLC-97TM1; first compound 0.5 µM)?
Its relative viability is 0.108.

What about the relative viability (NCI-H2405; first compound 0.005 µM) of the same compound?
Its relative viability is 0.398.

What about the relative viability (NCI-H2405; first compound 0.01581 µM) of the same compound?
The relative viability was 0.334.

What about the relative viability (NCI-H2405; first compound 0.05 µM) of the same compound?
The relative viability was 0.319.

And the relative viability (NCI-H2405; first compound 0.1581 µM)?
The relative viability was 0.301.

And the relative viability (NCI-H2405; first compound 0.5 µM)?
The relative viability was 0.229.

And the relative viability (HCC-78; first compound 0.005 µM)?
Its relative viability is 0.234.

And the relative viability (HCC-78; first compound 0.01581 µM)?
The relative viability was 0.196.

What about the relative viability (HCC-78; first compound 0.05 µM) of the same compound?
Its relative viability is 0.139.

What about the relative viability (HCC-78; first compound 0.1581 µM) of the same compound?
The relative viability was 0.141.

What about the relative viability (HCC-78; first compound 0.5 µM) of the same compound?
Its relative viability is 0.128.

What about the relative viability (NCI-H2126; first compound 0.005 µM) of the same compound?
The relative viability was 0.441.

What about the relative viability (NCI-H2126; first compound 0.01581 µM) of the same compound?
Its relative viability is 0.432.

What about the relative viability (NCI-H2126; first compound 0.05 µM) of the same compound?
Its relative viability is 0.382.

And the relative viability (NCI-H2126; first compound 0.1581 µM)?
Its relative viability is 0.312.

And the relative viability (NCI-H2126; first compound 0.5 µM)?
The relative viability was 0.29.

And the relative viability (EPLC-272H; first compound 0.005 µM)?
The relative viability was 0.246.

And the relative viability (EPLC-272H; first compound 0.01581 µM)?
The relative viability was 0.297.

And the relative viability (EPLC-272H; first compound 0.05 µM)?
The relative viability was 0.242.

And the relative viability (EPLC-272H; first compound 0.1581 µM)?
The relative viability was 0.187.

What about the relative viability (EPLC-272H; first compound 0.5 µM) of the same compound?
Its relative viability is 0.207.

And the relative viability (PC-14; first compound 0.01581 µM)?
The relative viability was 0.698.

And the relative viability (PC-14; first compound 0.05 µM)?
Its relative viability is 0.49.

What about the relative viability (PC-14; first compound 0.5 µM) of the same compound?
The relative viability was 0.126.

What about the relative viability (201T; first compound 0.005 µM) of the same compound?
Its relative viability is 0.655.

And the relative viability (201T; first compound 0.01581 µM)?
Its relative viability is 0.707.

And the relative viability (201T; first compound 0.05 µM)?
Its relative viability is 0.738.

What about the relative viability (201T; first compound 0.1581 µM) of the same compound?
The relative viability was 0.576.

And the relative viability (201T; first compound 0.5 µM)?
Its relative viability is 0.416.

And the relative viability (RERF-LC-KJ; first compound 0.005 µM)?
The relative viability was 0.493.

And the relative viability (RERF-LC-KJ; first compound 0.01581 µM)?
The relative viability was 0.459.

What about the relative viability (RERF-LC-KJ; first compound 0.05 µM) of the same compound?
The relative viability was 0.487.

And the relative viability (RERF-LC-KJ; first compound 0.1581 µM)?
Its relative viability is 0.428.

What about the relative viability (RERF-LC-KJ; first compound 0.5 µM) of the same compound?
The relative viability was 0.287.

And the relative viability (NCI-H1666; first compound 0.005 µM)?
Its relative viability is 0.498.

What about the relative viability (NCI-H1666; first compound 0.01581 µM) of the same compound?
Its relative viability is 0.345.

And the relative viability (NCI-H1666; first compound 0.05 µM)?
The relative viability was 0.381.

What about the relative viability (NCI-H1666; first compound 0.1581 µM) of the same compound?
The relative viability was 0.229.

And the relative viability (NCI-H1666; first compound 0.5 µM)?
Its relative viability is 0.205.

And the relative viability (NCI-H2087; first compound 0.005 µM)?
The relative viability was 0.804.

What about the relative viability (NCI-H2087; first compound 0.01581 µM) of the same compound?
Its relative viability is 0.751.

What about the relative viability (NCI-H2087; first compound 0.05 µM) of the same compound?
Its relative viability is 0.805.

And the relative viability (NCI-H2087; first compound 0.1581 µM)?
Its relative viability is 0.461.

What about the relative viability (NCI-H2087; first compound 0.5 µM) of the same compound?
Its relative viability is 0.355.
